From US7649002B2, “(3,5-dimethylpiperidin-1yl)(4-phenylpyrrolidin-3-yl)methanone derivatives as MCR4 agonists” (Pfizer Inc, priority 2004, dated 2010)

Legend:
human MCR4 receptor = molecular target: T1, human MCR4 receptor (Homo sapiens, UniProt P32245); assay: MCR4 standard functional assay (Protocol C): cAMP AlphaScreen in HEK cells; type: cell-based; conditions: Table 5
T1 construct: expressed in transfected cells
Description: (§1) Stimulation of adenylate cyclase following receptor activation is a widely used measure of functional activity for a number of receptor systems. The functional assay to measure cyclic AMP (cAMP) utilises human embryonic kidney (HEK) cells that stably express the human melanocortin MCR1, MCR3 or MCR4 receptor. Activation of MCR1, MCR3 or MCR4 receptors stimulates adenylate cyclase, generating cAMP, which is measured using AlphaScreen™ (PerkinElmer assay kits.
(§2) The AlphaScreen™ cAMP assay kit consists of ‘donor beads’, ‘acceptor beads’, and biotinylated cAMP which links the different beads together. Excitation of this linked complex at […] in the Fusion™-α microplate analyser results in light emission between […].
(§3) (i) MCR1. MCR3 and MCR4 Standard Functional Assay Methodology [Assay Protocol A, B AND C Respectively]
(§4) Determination of activity against the human MCR1, MCR3 and MCR4 receptor subtypes was carried out for compounds according to the present invention using three immortalised human embryonic kidney (HEK) cell lines that had been biologically engineered to express the human melanocortin MCR1, MCR3 or MCR4 receptor subtypes. These cell lines were engineered using protocols akin to those outlined by Gouarderes et al (Gouarderes, C., (2002) Neuroscience, 115(2); 349-361).
(§5) Such-compound-induced activation of these MCR1, MCR3 or MCR4 receptors lead to the stimulation of the cellular enzyme adenylate cyclase, which in turn lead to the cellular generation, and intra-cellular accumulation, of cyclic adenosine monophosphate (cAMP). […] Intracellular levels of cAMP were quantified using the commercially available AlphaScreen™ assay kits from PerkinElmer. A detailed assay protocol and an explanation of the concept underlying this kit is available through the PerkinElmer website (www.perkinelmer.com). The protocol listed below provides a summary this information.
(§6) The quantity of intracellular cAMP produced by compound-induced activation of the MCR1, MCR3 and MCR4 receptors in these three cell lines was measured using a Fusion™-α microplate analyser set to stimulate at a wavelength of 680 nm and to measure the energy emitted at wave lengths between […]. Compound-induced increases in MCR1, MCR3 or MCR4 receptor activation were subsequently quantified as a decrease in the quantity of light emitted at wavelengths between […]. Data analysis was subsequently performed using a curve-fitting program and the apparent potency of the test compound (expressed as an EC50 and defined as the effective compound concentration that elicited 50% of the maximum compound-induced response) extrapolated from the fitted curve.
Stimulation buffer (as per AlphaScreen™ protocol): HBSS supplemented with 0.5 mM IBMX, 5 mM HEPES, 0.1% (w/v) BSA and 10 mM MgCl2. […]

human MCR3 receptor = molecular target: T2, human MCR3 receptor (Homo sapiens, UniProt P41968); assay: MCR3 standard functional assay (Protocol B): cAMP AlphaScreen in HEK cells; type: cell-based; conditions: Table 5
T2 construct: expressed in transfected cells
T2 sequence (P41968 whole entry): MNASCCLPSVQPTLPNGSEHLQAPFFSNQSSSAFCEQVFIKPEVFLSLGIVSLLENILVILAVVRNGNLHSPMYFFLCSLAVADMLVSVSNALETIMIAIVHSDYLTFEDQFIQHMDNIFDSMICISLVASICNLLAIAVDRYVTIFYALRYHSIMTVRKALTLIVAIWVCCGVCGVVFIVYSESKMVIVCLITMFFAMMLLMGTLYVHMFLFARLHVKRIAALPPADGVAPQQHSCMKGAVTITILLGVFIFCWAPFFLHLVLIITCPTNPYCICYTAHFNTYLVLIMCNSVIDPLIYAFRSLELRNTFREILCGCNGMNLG
Description: as §1, §2, §3, §4, §5, §6
Stimulation buffer (as per AlphaScreen™ protocol): HBSS supplemented with 0.5 mM IBMX, 5 mM HEPES, 0.1% (w/v) BSA and 10 mM MgCl2.
Lysis buffer (as per AlphaScreen™ protocol): 5 mM HEPES solution supplemented with 0.1% (w/v) BSA and 0.3% (v/v) Tween-20.
Detection mix (as per AlphaScreen™ protocol): Lysis buffer supplemented with the biotinylated cAMP (10 nM) and Donor beads (10 μg/ml) as supplied in the AlphaScreenT cAMP assay kit.
For the MCR1, MCR3 and MCR4 standard functional assay methodologies compounds were initially dissolved in DMSO to give a compound concentration of 4 mM and then further diluted for the assay in stimulation buffer to give actual concentrations 2-fold greater than that desired as the final assay concentration.
The three HEK cell lines, as detailed hereinbefore, expressing the human MCR1, MCR3 or MCR4 receptor subtypes were grown in T225 vent cap flasks containing 50 ml of growth medium (DMEM supplemented with 10% (v/v) FCS, 2 mM L-Glutamine, 25 mM HEPES and 1.0 mg/ml Geneticin) and maintained in a cell incubator at a temperature of 37° C. and in an environment containing 5% CO2. Cells were harvested when they reached 80-90% confluency by first removing the existing growth medium and then washing with PBS that had been pre-warmed to a temperature of 37° C. […]

T1 sequence (P32245 whole entry): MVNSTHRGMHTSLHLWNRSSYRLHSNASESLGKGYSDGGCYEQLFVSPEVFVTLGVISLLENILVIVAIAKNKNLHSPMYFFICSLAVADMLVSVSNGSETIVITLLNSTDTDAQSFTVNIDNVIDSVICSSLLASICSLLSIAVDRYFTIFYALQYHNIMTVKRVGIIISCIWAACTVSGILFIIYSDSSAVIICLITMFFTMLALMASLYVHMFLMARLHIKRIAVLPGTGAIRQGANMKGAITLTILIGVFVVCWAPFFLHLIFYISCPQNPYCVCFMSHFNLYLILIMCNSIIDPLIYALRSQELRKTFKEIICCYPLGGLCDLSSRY

EC50 (human MCR4 receptor): 25 nM
Selectivity MCR3/MCR4 (human MCR3 receptor; MCR4 by Protocol C): 56
EC50 (human MCR3 receptor; Protocol B): 1390 nM
Compound: C[C@@H]1CN(C(=O)[C@@H]2CN(C(C)(C)C)C[C@H]2c2ccc(F)cc2F)C[C@H](C)[C@@]1(O)c1ccccc1 [Example 1, (3R,4R,5S)-1-{[(3S,4R)-1-tert-Butyl-4-(24-difluorophenyl)pyrrolidin-3-yl]carbonyl}-3,5-dimethyl-4-phenylpiperidin-4-ol]
